# Like-named read-outs stand apart in the source and are kept apart here.
# What was measured:
# [1] = tested on: Calu-6 tumour xenograft; assay: in vivo solid tumour model, Calu-6 tumour xenograft (WO 00/47212); settings: once-daily oral, 28 days
# [2] = tested on: range of models; settings: once-daily oral administration; cited from earlier work
# [3] = tested on: HUVEC; assay: HUVEC assay, endothelial cell proliferation (WO 00/47212); format: cell-based; settings: Homo sapiens
compound,measurement,setting,value
"COc1cc2c(Oc3ccc4[nH]c(C)cc4c3F)ncnc2cc1OCCCN1CCCC1 [AZD2171, 4-(4-fluoro-2-methyl-1H-indol-5-yloxy)-6-methoxy-7-(3-(pyrrolidin-1-yl)propoxy)quinazoline]",inhibition of growth of Calu-6 tumour xenograft,"[1]; 1.5 mg/kg/day, P<0.01",49%
same,inhibition of growth of Calu-6 tumour xenograft,"[1]; 3 mg/kg/day, P<0.00001",69%
same,inhibition of growth of Calu-6 tumour xenograft,"[1]; 6 mg/kg/day, P<0.00001",91%
same,anti-tumour activity in a range of models,[2],broad-spectrum anti-tumour activity
same,IC50,"[3]; HUVEC, basal (unstimulated) proliferation, read-out: IC50 for inhibition of basal endothelial cell proliferation",> 500 nM
same,IC50,"[3]; VEGF-stimulated, HUVEC assay, read-out: IC50 for inhibition of VEGF-stimulated endothelial cell proliferation",0.4 ± 0.2 nM

# Reference: patent US20090176731A1 (priority 2005, published 2009)
